Measured values as given in article PMC9870890 (Nature Communications, 2023).
Numbering of substitutions follows the chain as printed. Where two headings read alike, the source gives them in different places.

Key:
M2R [1] = molecular target: T1, M2R (Homo sapiens, UniProt P08172, M139L/M142L/M1T/M248L/M296L/M368L/M456T/M45L); format: biochemical; conditions: for Phosphorylation intensity: 100 μM Ixo or 1 mM carbachol
T1 construct: We used a full-length construct M2RFL△8 M for complexing with miniGαo and β-arrestin-1; FLAG (N); 8xHis (C); made in house; host or cells: Sf9 insect cells
T1 sequence (P08172 1-466 M1T/M45L/M139L/M142L/M248L/M296L/M368L/M456T): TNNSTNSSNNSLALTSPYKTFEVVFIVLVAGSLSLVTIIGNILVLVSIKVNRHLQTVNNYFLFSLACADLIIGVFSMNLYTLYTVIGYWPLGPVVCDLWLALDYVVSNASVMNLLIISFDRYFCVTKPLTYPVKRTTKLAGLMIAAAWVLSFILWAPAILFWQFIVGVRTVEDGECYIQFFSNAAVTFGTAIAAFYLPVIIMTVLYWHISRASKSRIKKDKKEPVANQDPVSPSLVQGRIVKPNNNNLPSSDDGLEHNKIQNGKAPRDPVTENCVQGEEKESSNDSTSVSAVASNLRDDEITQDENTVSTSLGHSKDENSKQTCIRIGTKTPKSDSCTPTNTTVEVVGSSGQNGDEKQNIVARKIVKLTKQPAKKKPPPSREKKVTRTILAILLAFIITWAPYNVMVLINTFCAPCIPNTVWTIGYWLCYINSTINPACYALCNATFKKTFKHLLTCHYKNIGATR
Protocol: We used a full-length construct M2RFL△8 M for complexing with miniGαo and β-arrestin-1. The receptor was purified as described above for cryo-EM sample. Excess GRK2 was mixed with the M2R in a buffer composed of 20 mM HEPES pH 7.5, 100 mM NaCl, 0.01% MNG, 0.003% CHS, 500 μM ATP in the presence and absence of 100 μM Ixo or 1 mM carbachol to initiate the phosphorylation at room temperature. The extent of phosphorylation at various time points (from 0 to 120 min) was evaluated by Pro-Q and Coomassie blue staining. The final phosphorylated receptor (Ixo-bound) was further evaluated by ion-exchange chromatography. The complex formation test was performed as follows: unphosphorylated Ixo-bound M2RFL△8 M or phosphorylated M2RFL△8 M was mixed with miniGαo or β-arrestin-1, respectively and incubated on ice for 30 min. The receptor alone or mixed complex sample were then analyzed by SEC against 20 mM HEPES pH 7.5, 100 mM NaCl, 0.01% MNG, 0.003% CHS in the presence of 10 μM Ixo.

M2R [2] = molecular target: T2, M2R (Homo sapiens, UniProt P08172); assay: cell-based; conditions: for Emax: HEK-293T
T2 sequence (P08172 1-466): T1 sequence (P08172 1-466 M1T/M45L/M139L/M142L/M248L/M296L/M368L/M456T) with T1M, L45M, L139M, L142M, L248M, L296M, L368M, T456M
Protocol: Measurement of G-protein mediated activation of M2R was performed applying the IP-One HTRF® accumulation assay (Cisbio, Codolet, France) as previously described protocols[29],[73]. In brief, HEK 293T cells were co-transfected with the cDNA coding for M2R and the hybrid G-protein Gαqi (Gαq protein with the last five amino acids at the C-terminus replaced by the corresponding sequence of Gαi; gift from The J. David Gladstone Institutes, San Francisco, CA) and transferred into 384-well micro plates. […] Accumulation of second messenger was stopped by addition of the detection reagents (IP1-d2 conjugate and Anti-IP1cryptate TB conjugate). […] Normalized concentration-response curves from four to eight experiments each done in duplicates were analyzed using the algorithms for four parameter non-linear regression implemented in PRISM 8.0 (GraphPad Software, USA) to derive EC50 and Emax values.

C[N+](C)(C)CC#CCOC1=NOCC1 [Ixo, iperoxo]
Phosphorylation intensity (M2R [1]; Time 5 min): 4552.74 | Phosphorylation intensity (M2R [1]; Time 10 min): 10530.1 | Phosphorylation intensity (M2R [1]; Time 15 min): 15003.3 | Phosphorylation intensity (M2R [1]; Time 30 min): 17454.3 | Phosphorylation intensity (M2R [1]; Time 60 min): 18635.2 | Phosphorylation intensity (M2R [1]; Time 120 min): 18093.2 | induction of GRK2-mediated phosphorylation of M2R (M2R [1]; compared with carbachol): more efficient than carbachol | EC50 (M2R [2]): 0.31 ± 0.043 nM | Emax (M2R [2]; read-out: Emax in % of acetylcholin, IP accumulation by iperoxo, agonist (absence of LY2119620)): 115% | Emax (M2R [2]; read-out: Emax in % of acetylcholin, IP accumulation by iperoxo, agonist + 0.1 µM LY): 111% | Emax (M2R [2]; read-out: Emax in % of acetylcholin, IP accumulation by iperoxo, agonist + 1 µM LY): 105% | Emax (M2R [2]; read-out: Emax in % of acetylcholin, IP accumulation by iperoxo, agonist + 3 µM LY): 104% | Emax (M2R [2]; read-out: Emax in % of acetylcholin, IP accumulation by iperoxo, agonist + 10 µM LY): 104% | Emax (M2R [2]; read-out: Emax in % of acetylcholin, IP accumulation by iperoxo, agonist + 100 µM LY): 102% | Emax (M2R [2]; read-out: IP accumulation as % max effect of acetylcholin, iperoxo log [M] 3-8, 1µM LY2119620): 103% | Emax (M2R [2]; read-out: IP accumulation as % max effect of acetylcholin, iperoxo log [M] 3-8, 3µM LY2119620): 102% | Emax (M2R [2]; read-out: IP accumulation as % max effect of acetylcholin, iperoxo log [M] 3-8, 10µM LY2119620): 99.3% | Emax (M2R [2]; read-out: IP accumulation as % max effect of acetylcholin, iperoxo log [M] 3-8, 100µM LY2119620): 98.3% | Emax (M2R [2]; read-out: IP accumulation as % max effect of acetylcholin, iperoxo log [M] 3-8, no LY2119620): 111% | Emax (M2R [2]; read-out: IP accumulation as % max effect of acetylcholin, iperoxo log [M] 3-9, 0.1µM LY2119620): 122% | Emax (M2R [2]; read-out: IP accumulation as % max effect of acetylcholin, iperoxo log [M] 3-9, 1µM LY2119620): 104% | Emax (M2R [2]; read-out: IP accumulation as % max effect of acetylcholin, iperoxo log [M] 3-9, 3µM LY2119620): 106% | Emax (M2R [2]; read-out: IP accumulation as % max effect of acetylcholin, iperoxo log [M] 3-9, 10µM LY2119620): 98.3% | Emax (M2R [2]; read-out: IP accumulation as % max effect of acetylcholin, iperoxo log [M] 3-9, 30µM LY2119620): 87.5% | Emax (M2R [2]; read-out: IP accumulation as % max effect of acetylcholin, iperoxo log [M] 3-9, 100µM LY2119620): 106% | Emax (M2R [2]; read-out: IP accumulation as % max effect of acetylcholin, iperoxo log [M] 3-9, no LY2119620): 113% | Emax (M2R [2]; read-out: IP accumulation as % max effect of acetylcholin, iperoxo log [M] 3-10, 0.1µM LY2119620): 85.3% | Emax (M2R [2]; read-out: IP accumulation as % max effect of acetylcholin, iperoxo log [M] 3-10, 1µM LY2119620): 100% | Emax (M2R [2]; read-out: IP accumulation as % max effect of acetylcholin, iperoxo log [M] 3-10, 3µM LY2119620): 104% | Emax (M2R [2]; read-out: IP accumulation as % max effect of acetylcholin, iperoxo log [M] 3-10, 10µM LY2119620): 106% | Emax (M2R [2]; read-out: IP accumulation as % max effect of acetylcholin, iperoxo log [M] 3-10, 100µM LY2119620): 104% | Emax (M2R [2]; read-out: IP accumulation as % max effect of acetylcholin, iperoxo log [M] 3-11, 0.1µM LY2119620): 26.4% | Emax (M2R [2]; read-out: IP accumulation as % max effect of acetylcholin, iperoxo log [M] 3-11, 10µM LY2119620): 94.8% | Emax (M2R [2]; read-out: IP accumulation as % max effect of acetylcholin, iperoxo log [M] 3-12, 0.1µM LY2119620): 12.3% | Emax (M2R [2]; read-out: IP accumulation as % max effect of acetylcholin, iperoxo log [M] 3-12, 1µM LY2119620): 35.6% | Emax (M2R [2]; read-out: IP accumulation as % max effect of acetylcholin, iperoxo log [M] 3-12, 100µM LY2119620): 80.3% | Emax (M2R [2]; read-out: IP accumulation as % max effect of acetylcholin, iperoxo log [M] -6, 0.1µM LY2119620): 108% | Emax (M2R [2]; read-out: IP accumulation as % max effect of acetylcholin, iperoxo log [M] -6, 1µM LY2119620): 101% | Emax (M2R [2]; read-out: IP accumulation as % max effect of acetylcholin, iperoxo log [M] -6, 3µM LY2119620): 101% | Emax (M2R [2]; read-out: IP accumulation as % max effect of acetylcholin, iperoxo log [M] -6, 10µM LY2119620): 104% | Emax (M2R [2]; read-out: IP accumulation as % max effect of acetylcholin, iperoxo log [M] -6, 30µM LY2119620): 97% | Emax (M2R [2]; read-out: IP accumulation as % max effect of acetylcholin, iperoxo log [M] -6, 100µM LY2119620): 104% | Emax (M2R [2]; read-out: IP accumulation as % max effect of acetylcholin, iperoxo log [M] -6, no LY2119620): 102% | Emax (M2R [2]; read-out: IP accumulation as % max effect of acetylcholin, iperoxo log [M] -7, 0.1µM LY2119620): 104% | Emax (M2R [2]; read-out: IP accumulation as % max effect of acetylcholin, iperoxo log [M] -7, 1µM LY2119620): 104% | Emax (M2R [2]; read-out: IP accumulation as % max effect of acetylcholin, iperoxo log [M] -7, 3µM LY2119620): 98.3% | Emax (M2R [2]; read-out: IP accumulation as % max effect of acetylcholin, iperoxo log [M] -7, 10µM LY2119620): 101% | Emax (M2R [2]; read-out: IP accumulation as % max effect of acetylcholin, iperoxo log [M] -7, 100µM LY2119620): 102% | Emax (M2R [2]; read-out: IP accumulation as % max effect of acetylcholin, iperoxo log [M] -7, no LY2119620): 107% | Emax (M2R [2]; read-out: IP accumulation as % max effect of acetylcholin, iperoxo log [M] -8, 0.1µM LY2119620): 113% | Emax (M2R [2]; read-out: IP accumulation as % max effect of acetylcholin, iperoxo log [M] -8, 3µM LY2119620): 106% | Emax (M2R [2]; read-out: IP accumulation as % max effect of acetylcholin, iperoxo log [M] -8, 10µM LY2119620): 102% | Emax (M2R [2]; read-out: IP accumulation as % max effect of acetylcholin, iperoxo log [M] -8, no LY2119620): 112% | Emax (M2R [2]; read-out: IP accumulation as % max effect of acetylcholin, iperoxo log [M] -9, 1µM LY2119620): 108% | Emax (M2R [2]; read-out: IP accumulation as % max effect of acetylcholin, iperoxo log [M] -9, 10µM LY2119620): 106% | Emax (M2R [2]; read-out: IP accumulation as % max effect of acetylcholin, iperoxo log [M] -9, 100µM LY2119620): 108% | Emax (M2R [2]; read-out: IP accumulation as % max effect of acetylcholin, iperoxo log [M] -10, 3µM LY2119620): 100% | Emax (M2R [2]; read-out: IP accumulation as % max effect of acetylcholin, iperoxo log [M] -10, 10µM LY2119620): 101% | Emax (M2R [2]; read-out: IP accumulation as % max effect of acetylcholin, iperoxo log [M] -12, 100µM LY2119620): 94.6% | Emax (M2R [2]; read-out: IP accumulation as % max effect of acetylcholin, iperoxo log [M] -14, 0.1µM LY2119620): 18.7% | Emax (M2R [2]; read-out: IP accumulation as % max effect of acetylcholin, iperoxo log [M] -14, 30µM LY2119620): 79.3% | Emax (M2R [2]; read-out: IP accumulation as % max effect of acetylcholin, iperoxo log [M] -14, 100µM LY2119620): 78.3%
